Assay results published in PMC10047683, “A Novel Family of Lysosomotropic Tetracyclic Compounds for Treating Leukemia” (Cancers, 2023).

Columns and labels:
[1] = system: primary AML samples (lineage-depleted umbilical cord blood cells as healthy counterpart); experiment: Clonogenicity assay; type: cell-based, human
Method: 1,000 cells of AML cell lines or 50,000 primary cells (both AML and lin-depleted UCB) were treated at the indicated concentration for 18 h, and cultured in 1 mL of MethoCult H4034 Optimum (StemCell Technologies, Vancouver, BC, Canada).
Colonies were screened based on morphology and cellularity at day 7 (cell lines) […]
Calcium mobilization assay
1 x 10^6 cells per mL were loaded for 30’ at 37 °C with the Fura-2-AM probe (Thermo Fisher) at a final 2 µM concentration in pre-warmed calcium- and magnesium-free Hanks BSA solution. Cells were then washed and resuspended in Hanks BSA solution with calcium and magnesium at 3 x 10^5 cells per mL. In parallel, 50µL of drugs in Hanks BSA solution with calcium and magnesium were added to 96-well black wall clear bottom plates and background fluorescence was read at Ex340/Em508 and Ex380/Em508. Cells were then added to the plate (50µL/well) and fluorescence was acquired at indicated timepoints using a Synergy HT Multi-Detection Microplate Reader (BioTek). For the analysis, all values were subtracted their corresponding background fluorescence, and the ratio 340/380 was calculated. Finally, ratios were normalized to vehicle-treated […]
Semi-Quantitative Real Time PCR

AML patient samples = experiment: Combination with ATO, viability by flow cytometry and Bliss synergy; type: cell-based, human; conditions: for Effectivity (%Viability reduction): 48 h
Method: (§1) First, 2 × 10^5 (72 h assays in cell lines (Supplementary File S1)), 3 × 10^5 (48 h assays in cell lines) or 7.5 × 10^5 (primary AML, healthy donor buffy coats) cells per mL were cultured in 96-well plates, and all drugs were added at the indicated concentrations. In α-tocopherol experiments, cells were treated with growing concentrations of α-tocopherol and EDK drugs for 48 h. In the NAC and 3MA experiments, treatment was simultaneous with EDK compounds. In glucose deprivation experiments, cells were cultivated with a standard medium (glucose high, 2 g/L), a standard medium without glucose, or a standard medium with galactose (2 g/L) and without glucose. Cell viability was measured via 7-AAD (eBioscience) exclusion and Hoechst33342 (Sigma-Aldrich, St. Louis, MO, USA) positivity staining via flow cytometry, and the cell count was obtained through volume. In the experiments with the primary cells, analyses were performed inside the blast population as detected via blast gates (CD45^low SSC^int). For solid tumor cell lines, viability was analyzed using CellTiter-Glo® Luminescent Cell Viability Assay (Promega).
(§2) Synergy was calculated using SynergyFinder 2.0 with the Bliss reference model.

[2] = system: healthy donor blood samples (BC: buffy coat); experiment: as above; type: cell-based, human; conditions: 48 h
Method: as §1, §2

AML cell lines [3] = experiment: Lysosomal mass with Lysotracker probe; type: cell-based; conditions: 10 µM, 24 h
Method: Lysosomal mass was determined using Lysotracker DeepRed (Thermo Fisher, Waltham, MA, USA), and analyzed with cytometry and microscopy, as explained previously. The lysosomal activity assays were performed following the guidance of the study that first introduced the Lysosomal Metriq probe. AML cell lines were lentivirally transduced with the pCW57.1 Lysosomal-METRIQ plasmid (Addgene #135401), and selected with puromycin (2 µg/mL). Cells were treated for 3 consecutive days with 3 µg/mL doxycycline (Sigma Aldrich, St. Louis, MO, USA), incubated with the compounds of interest for 24 h, and analyzed in the flow cytometer. Lysosomal activity was measured as the ratio between red fluorescence (acting as an internal control) and green fluorescence (located in the lysosomes and degraded to different degrees depending on the activity of the lysosomal compartment). For the Galectin 3 puncta assay, AML cell lines were lentivirally transduced with the mAG-Gal3 plasmid (Addgene #62734). Treatments and analysis were performed as described elsewhere. Then, 2 × 10^5 cells per ml were pulsed with dextran-rhodamine (0.25 mg/mL) for 24 h, chased for 2 h, treated with EDK compounds at the indicated concentrations for 48 h, attached to poly-L-lysine (50 μg/mL)-coated chambered coverslips (μ-Slide 8 well, Ibidi), imaged in a Zeiss LSM880 microscope, and analyzed with Fiji software.

AML cell lines [4] = experiment: Seahorse oxygen consumption (OCR); type: cell-based; conditions: 5 and 10 µM, 24 h
Method: Seahorse studies were performed using the Agilent Seahorse XF Real-Time ATP Rate Assay Kit. […] Cells were washed and suspended in Seahorse medium (Seahorse XF medium with 2 mM glutamine, 10 mM glucose, 2 mM pyruvate) at a concentration of 1.4 × 10^6 (Mono Mac1) and 2.4 × 10^6 (HL60) cells per mL; 50 μL per well were seeded in 96-well Seahorse plates precoated with polylysine, centrifuged, and left to adhere for 20 min at 37 °C before adding prewarmed Seahorse medium to a final volume of 180 μL per well. Basal OCR and ECAR were measured, and the ATP rate assay was performed with the sequential injection of 1.5 μM oligomycin and 0.5 μM rotenone/antimycin A. A detailed description of this protocol was provided by the manufacturers. Mitochondrial ROS was quantified using the MitoSOX Red Mitochondrial Superoxide Indicator (Thermo Fischer Scientific, Waltham, MA, USA), as previously described. The activation of executive caspases was determined using CaspaseGlo® 3/7 Assay (Promega), following the manufacturer’s recommendations. The detection of Annexin-V staining was also described previously.

Q: Which results are given for CN1CCC(=C2c3ccccc3-c3c2sc2ccccc32)CC1 [EDK-87]?
A: clonogenicity, effect in AML ([1]; primary AML samples): 77.9% ± 9.2; therapeutic window (clonogenicity) ([1]; primary AML vs lineage-depleted umbilical cord blood): 3.2; synergy with ATO (AML patient samples; AML cell lines and three primary AML samples): highly synergistic; Effectivity (%Viability reduction) (AML patient samples; AML#63, single agent 5 µM): -5%; Effectivity (%Viability reduction) (AML patient samples; AML#63, single agent 10 µM): -19%; Effectivity (%Viability reduction) (AML patient samples; AML#98, single agent 1 µM): -9%; Effectivity (%Viability reduction) (AML patient samples; AML#98, single agent 5 µM): 0%; Effectivity (%Viability reduction) (AML patient samples; AML#98, single agent 10 µM): 8%; Effectivity (%Viability reduction) (AML patient samples; AML#133, single agent 1 µM): -9%; Effectivity (%Viability reduction) (AML patient samples; AML#133, single agent 5 µM): 3%; Effectivity (%Viability reduction) (AML patient samples; AML#133, single agent 10 µM): 19%; Effectivity (%Viability reduction) ([2]; BC#1, single agent 1 µM): 0%; Effectivity (%Viability reduction) ([2]; BC#1, single agent 5 µM): 4%; Effectivity (%Viability reduction) ([2]; BC#1, single agent 10 µM): 19%; Effectivity (%Viability reduction) ([2]; BC#2, single agent 1 µM): 0%; Effectivity (%Viability reduction) ([2]; BC#2, single agent 5 µM): 4%; Effectivity (%Viability reduction) ([2]; BC#2, single agent 10 µM): 14%; lysosomal mass (Lysotracker) (AML cell lines [3]): expansion of the lysosomal mass; oxygen consumption (OCR) (AML cell lines [4]): drastic reduction in oxygen consumption
